As a reminder, the IC50 is the concentration at which inhibition is half-maximal.

The source of these data is patent US20260258035A1, “FIVE-MEMBERED AND SIX-MEMBERED NITROGEN-CONTAINING COMPOUND, AND INTERMEDIATE, PREPARATION METHOD AND USE THEREOF” (HANGZHOU SYNRX THERAPEUTICS BIOMEDICAL TECHNOLOGY CO., LTD., priority 2022, published 2026).

Read-outs that look alike come from different tables or passages of the source.

The target in one test is PARG (Homo sapiens, UniProt Q86W56). The test can be described thus: Biochemical assay (PARG, TFMU-ADPr substrate).
A further test concerns HCC1806. The test is described as follows: Cell viability assay (CellTiter-Glo). It counts as cell-based, Human. To be noted: HCC1806, 7 days, CellTiter-Glo, read-out: IC50 (nM) in cell viability assay. A general note: In ATP-based viability assays light output follows the ATP content of the culture.
Setting [1] is: 4 nM PARG, 66.2 uM TFMU-ADPr, 3 min at room temperature.

Chain of PARG (Q86W56 whole entry): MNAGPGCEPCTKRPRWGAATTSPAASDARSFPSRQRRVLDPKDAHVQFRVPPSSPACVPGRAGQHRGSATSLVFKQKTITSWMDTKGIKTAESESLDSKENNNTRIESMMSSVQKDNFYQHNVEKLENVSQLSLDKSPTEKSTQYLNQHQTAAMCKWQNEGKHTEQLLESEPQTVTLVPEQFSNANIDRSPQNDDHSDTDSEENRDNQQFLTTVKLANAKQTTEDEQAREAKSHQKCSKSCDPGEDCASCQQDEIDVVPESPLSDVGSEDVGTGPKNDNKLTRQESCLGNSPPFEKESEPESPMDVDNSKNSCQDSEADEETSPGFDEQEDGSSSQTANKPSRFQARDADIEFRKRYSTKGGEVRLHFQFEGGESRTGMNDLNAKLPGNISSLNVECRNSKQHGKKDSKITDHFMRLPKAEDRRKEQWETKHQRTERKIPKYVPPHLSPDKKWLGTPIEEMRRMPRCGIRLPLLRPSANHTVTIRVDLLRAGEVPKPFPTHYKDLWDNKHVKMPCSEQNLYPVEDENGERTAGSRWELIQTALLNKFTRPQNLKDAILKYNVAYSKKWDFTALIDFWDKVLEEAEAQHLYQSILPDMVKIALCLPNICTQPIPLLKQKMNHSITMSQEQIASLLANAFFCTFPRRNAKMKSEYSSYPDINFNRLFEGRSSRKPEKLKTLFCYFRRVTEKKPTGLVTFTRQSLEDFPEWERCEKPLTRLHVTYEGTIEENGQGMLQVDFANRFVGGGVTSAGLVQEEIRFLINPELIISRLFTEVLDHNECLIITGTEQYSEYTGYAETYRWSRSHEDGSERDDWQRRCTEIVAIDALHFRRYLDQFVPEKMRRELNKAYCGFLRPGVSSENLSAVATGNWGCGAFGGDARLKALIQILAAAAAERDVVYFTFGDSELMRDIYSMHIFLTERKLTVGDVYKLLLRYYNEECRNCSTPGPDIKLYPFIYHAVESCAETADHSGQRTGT

In the case of `C[C@@H]1CN(c2cc(S(=O)(=O)NC3(C)COC3)cn3c(-c4nnc(C(F)F)s4)ncc23)C[C@@H](C)N1` [Example 180, 3-(5-(difluoromethyl)-1,3,4-thiadiazol-2-yl)-8-((3R,5R)-3,5-dimethylpiperazin-1-yl)-N-(3-methyloxetan-3-yl)imidazo[1,5-a]pyridine-6-sulfonamide], the IC50 against PARG (PARG, TFMU-ADPr substrate) stood at 5.62 nM; with HCC1806 (Homo sapiens, HCC1806, 168 h), 517 nM.
For `COC1(C(=O)N2CCN(c3cc(S(=O)(=O)NC4(C)CC4)cn4c(-c5nnc(C(F)F)s5)ncc34)CC2)CN(C)C1` [Example 310, 3-(5-(difluoromethyl)-1,3,4-thiadiazol-2-yl)-8-(4-(3-methoxy-1-methylazetidine-3-carbonyl)piperazin-1-yl)-N-(1-methylcyclopropyl)imidazo[1,5-a]pyridine-6-sulfonamide], in that order: < 0.1 nM and 38 nM.
As for `CC(C)C(=O)N1CCN(c2cc(S(=O)(=O)NC3(C)CC3)cn3c(-c4nnc(C(F)(F)F)s4)nc(C#N)c23)CC1` [Example 164, 1-cyano-8-(4-isobutyrylpiperazin-1-yl)-N-(1-methylcyclopropyl)-3-(5-(trifluoromethyl)-1,3,4-thiadiazol-2-yl)imidazo[1,5-a]pyridine-6-sulfonamide], the half-inhibitory concentration (IC50) against PARG (PARG, TFMU-ADPr substrate) was 3.31 nM; in the test on HCC1806 (Homo sapiens, HCC1806, 168 h), 100 nM.
The like results for `COC1(C(=O)N2CCC(c3cc(S(=O)(=O)NC4(C#N)CC4)cn4c(-c5nnc(C(F)(F)F)s5)ncc34)CC2)CC1` [Example 373, N-(1-cyanocyclopropyl)-8-(1-(1-methoxycyclopropane-1-carbonyl)piperidin-4-yl)-3-(5-(trifluoromethyl)-1,3,4-thiadiazol-2-yl)imidazo[1,5-a]pyridine-6-sulfonamide] were, in that order, 3.31 nM and 21.1 nM.
On to `CC(C)C(=O)N1CCN(c2cc(S(=O)(=O)NC3(CF)COC3)cn3c(-c4nnc(C(F)F)s4)nnc23)CC1` [Example 106, 3-(5-(difluoromethyl)-1,3,4-thiadiazol-2-yl)-N-(3-(fluoromethyl)oxetan-3-yl)-8-(4-isobutyrylpiperazin-1-yl)-[1,2,4]triazolo[4,3-a]pyridine-6-sulfonamide], for which the 50% inhibitory concentration (IC50) was < 100 nM against PARG (setting [1]); 28.2 nM on PARG (PARG, TFMU-ADPr substrate); 5000 nM with HCC1806; 5000 to 30000 nM in the test on HCC1806 (Homo sapiens, HCC1806, 168 h).
On to `COCC1CN(c2cc(S(=O)(=O)NC3(C)COC3)cn3c(-c4nnc(C(F)F)s4)ncc23)CCN1` (stereo not shown) [Example 357, 3-(5-(difluoromethyl)-1,3,4-thiadiazol-2-yl)-8-(3-(methoxymethyl)piperazin-1-yl)-N-(3-methyloxetan-3-yl)imidazo[1,5-a]pyridine-6-sulfonamide], for which the 50% inhibitory concentration (IC50) turned out to be 8.31 nM at PARG (PARG, TFMU-ADPr substrate) and 208 nM in the test with HCC1806 (Homo sapiens, HCC1806, 168 h).
With `Cn1ccnc1N1CCN(c2cc(S(=O)(=O)NC3(C#N)CC3)cn3c(-c4nnc(C(F)(F)F)s4)ncc23)CC1` [Example 238, N-(1-cyanocyclopropyl)-8-(4-(1-methyl-1H-imidazol-2-yl)piperazin-1-yl)-3-(5-(trifluoromethyl)-1,3,4-thiadiazol-2-yl)imidazo[1,5-a]pyridine-6-sulfonamide], the IC50 on PARG (PARG, TFMU-ADPr substrate) came out at 38 nM; with HCC1806 (Homo sapiens, HCC1806, 168 h) it was 15000 nM.
Take `COC1(C(=O)N2[C@@H](C)CN(c3cc(S(=O)(=O)NC4(C)COC4)cn4c(-c5nnc(C(F)F)s5)ncc34)C[C@@H]2C)CC1` [Example 399, 3-(5-(difluoromethyl)-1,3,4-thiadiazol-2-yl)-8-((3S,5S)-4-(1-methoxycyclopropane-1-carbonyl)-3,5-dimethylpiperazin-1-yl)-N-(3-methyloxetan-3-yl)imidazo[1,5-a]pyridine-6-sulfonamide]: the IC50 came out at 12.6 nM against PARG (PARG, TFMU-ADPr substrate) and 755 nM in the test with HCC1806 (Homo sapiens, HCC1806, 168 h).
Consider `CN(C)C1(C(=O)N2CCN(c3cc(S(=O)(=O)NC4(C#N)CC4)cn4c(-c5nnc(C(F)(F)F)s5)ncc34)CC2)CC1` [Example 266, N-(1-cyanocyclopropyl)-8-(4-(1-(dimethylamino)cyclopropane-1-carbonyl)piperazin-1-yl)-3-(5-(trifluoromethyl)-1,3,4-thiadiazol-2-yl)imidazo[1,5-a]pyridine-6-sulfonamide], for which the IC50 against PARG (PARG, TFMU-ADPr substrate) was 132 nM; with HCC1806 (Homo sapiens, HCC1806, 168 h), 370 nM.
As to `COC[C@H]1CN(c2cc(S(=O)(=O)NC3(C)COC3)cn3c(-c4nnc(C(F)F)s4)nc(Cl)c23)C[C@H](C)N1` [Example 403, 1-chloro-3-(5-(difluoromethyl)-1,3,4-thiadiazol-2-yl)-8-((3R,5S)-3-(methoxymethyl)-5-methylpiperazin-1-yl)-N-(3-methyloxetan-3-yl)imidazo[1,5-a]pyridine-6-sulfonamide], the half-inhibitory concentration (IC50) came out at 21.9 nM at PARG (PARG, TFMU-ADPr substrate) and 458 nM with HCC1806 (Homo sapiens, HCC1806, 168 h).
Turning to `CC1(NS(=O)(=O)c2cc(N3CCN(C(=O)[C@@H]4CCCN4)CC3)c3cnc(-c4nnc(C(F)(F)F)s4)n3c2)CC1` [Example 316, (S)-N-(1-methylcyclopropyl)-8-(4-prolylpiperazin-1-yl)-3-(5-(trifluoromethyl)-1,3,4-thiadiazol-2-yl)imidazo[1,5-a]pyridine-6-sulfonamide], the IC50 came out at 4.46 nM against PARG (PARG, TFMU-ADPr substrate) and 918 nM with HCC1806 (Homo sapiens, HCC1806, 168 h).
On to `CC1(NS(=O)(=O)c2cc(N3CCN(C(=O)C4CCOCC4)CC3)c3cnc(-c4nnc(C(F)(F)F)s4)n3c2)CC1` [Example 292, N-(1-methylcyclopropyl)-8-(4-(tetrahydro-2H-pyran-4-carbonyl)piperazin-1-yl)-3-(5-(trifluoromethyl)-1,3,4-thiadiazol-2-yl)imidazo[1,5-a]pyridine-6-sulfonamide], for which the half-inhibitory concentration (IC50) against PARG (PARG, TFMU-ADPr substrate) came to 4.57 nM; with HCC1806 (Homo sapiens, HCC1806, 168 h), 40 nM.
In the case of `CC1(C(=O)N2CCN(c3cc(S(=O)(=O)NC4(C#N)CC4)cn4c(-c5nnc(C(F)F)s5)ncc34)CC23CC3)CC1` [Example 91, N-(1-cyanocyclopropyl)-3-(5-(difluoromethyl)-1,3,4-thiadiazol-2-yl)-8-(4-(1-methylcyclopropane-1-carbonyl)-4,7-diazaspiro[2.5]octan-7-yl)imidazo[1,5-a]pyridine-6-sulfonamide], the IC50 is < 100 nM against PARG (setting [1]); 31.6 nM against PARG (PARG, TFMU-ADPr substrate); 264 nM with HCC1806; < 500 nM in the test with HCC1806 (Homo sapiens, HCC1806, 168 h).
Turning to `COC(C)(C)C(=O)N1CCN(c2cc(S(=O)(=O)NC3(C#N)CC3)cn3c(-c4nnc(C(F)(F)F)s4)ncc23)CC1` [Example 296, N-(1-cyanocyclopropyl)-8-(4-(2-methoxy-2-methylpropanoyl)piperazin-1-yl)-3-(5-(trifluoromethyl)-1,3,4-thiadiazol-2-yl)imidazo[1,5-a]pyridine-6-sulfonamide], the IC50 on PARG (PARG, TFMU-ADPr substrate) is 3.02 nM; with HCC1806 (Homo sapiens, HCC1806, 168 h), 38.7 nM.
For `N#CC1(NS(=O)(=O)c2cc(N3CCN(C(=O)C(O)C(F)(F)F)CC3)c3cnc(-c4nnc(C(F)(F)F)s4)n3c2)CC1` (stereo not shown) [Example 231, N-(1-cyanocyclopropyl)-8-(4-(3,3,3-trifluoro-2-hydroxypropanoyl)piperazin-1-yl)-3-(5-(trifluoromethyl)-1,3,4-thiadiazol-2-yl)imidazo[1,5-a]pyridine-6-sulfonamide], in that order: 8.32 nM and 500 nM.
In the case of `CC1(NS(=O)(=O)c2cc(N3CCN(C(=O)c4ncc[nH]4)CC3)c3cnc(-c4nnc(C(F)F)s4)n3c2)CC1` [Example 339, 8-(4-(1H-imidazole-2-carbonyl)piperazin-1-yl)-3-(5-(difluoromethyl)-1,3,4-thiadiazol-2-yl)-N-(1-methylcyclopropyl)imidazo[1,5-a]pyridine-6-sulfonamide], the concentration for half-maximal inhibition (IC50) on PARG (PARG, TFMU-ADPr substrate) came to 3.16 nM; with HCC1806 (Homo sapiens, HCC1806, 168 h), 226 nM.
Turning to `N#CC1(NS(=O)(=O)c2cc(N3CCN(C(=O)C4(OCC(=O)O)CC4)CC3)c3cnc(-c4nnc(C(F)F)s4)n3c2)CC1` [Example 381, 2-(1-(4-(6-(N-(1-cyanocyclopropyl)sulfamoyl)-3-(5-(difluoromethyl)-1,3,4-thiadiazol-2-yl)imidazo[1,5-a]pyridin-8-yl)piperazine-1-carbonyl)cyclopropoxy)acetic acid], the IC50 came out at 27.1 nM against PARG (PARG, TFMU-ADPr substrate) and 3630 nM with HCC1806 (Homo sapiens, HCC1806, 168 h).
As to `CC(C)C(=O)N1CC2(C=C(c3nc(-c4nnc(C(F)(F)F)s4)n4cc(S(=O)(=O)NC5(C#N)CC5)ccc34)CC2)C1` [Example 389, N-(1-cyanocyclopropyl)-1-(2-isobutyryl-2-azaspiro[3.4]oct-5-en-6-yl)-3-(5-(trifluoromethyl)-1,3,4-thiadiazol-2-yl)imidazo[1,5-a]pyridine-6-sulfonamide], the IC50 came out at 20 nM against PARG (PARG, TFMU-ADPr substrate) and 2130 nM in the test on HCC1806 (Homo sapiens, HCC1806, 168 h).
`COC1(C(=O)N2CC=C(c3cc(S(=O)(=O)NC4(C#N)CC4)cn4c(-c5nnc(C(F)(F)F)s5)ncc34)CC2)CC1` [Example 379, N-(1-cyanocyclopropyl)-8-(1-(1-methoxycyclopropane-1-carbonyl)-1,2,3,6-tetrahydropyridin-4-yl)-3-(5-(trifluoromethyl)-1,3,4-thiadiazol-2-yl)imidazo[1,5-a]pyridine-6-sulfonamide]: the 50% inhibitory concentration (IC50) against PARG (PARG, TFMU-ADPr substrate) was determined as 2.09 nM; with HCC1806 (Homo sapiens, HCC1806, 168 h) it was 20 nM.
With `CC(C)C(=O)N1CCN(c2cc(S(=O)(=O)NC3(C)CC3)cn3c(-c4nnc(C(F)(F)F)s4)nnc23)CC1` [Example 388, 8-(4-isobutyrylpiperazin-1-yl)-N-(1-methylcyclopropyl)-3-(5-(trifluoromethyl)-1,3,4-thiadiazol-2-yl)-[1,2,4]triazolo[4,3-a]pyridine-6-sulfonamide], the IC50 came to 10 nM against PARG (PARG, TFMU-ADPr substrate) and 320 nM with HCC1806 (Homo sapiens, HCC1806, 168 h).
Regarding `COC1(C(=O)N2CCN(c3cc(S(=O)(=O)NC4(C#N)CC4)cn4c(-c5nnc(C(F)(F)F)s5)ncc34)CC2)CC1` [Example 228, N-(1-cyanocyclopropyl)-8-(4-(1-methoxycyclopropane-1-carbonyl)piperazin-1-yl)-3-(5-(trifluoromethyl)-1,3,4-thiadiazol-2-yl)imidazo[1,5-a]pyridine-6-sulfonamide], the 50% inhibitory concentration (IC50) against PARG (PARG, TFMU-ADPr substrate) was 0.38 nM; with HCC1806 (Homo sapiens, HCC1806, 168 h), 107 nM.
